Data: ChEMBL document CHEMBL1201862, “PubChem BioAssay data set” (2004)
Active and inactive are the calls of the source.

What was measured:
[1] = toxicity toward HepG2 liver cells – cell-based, plate reader, cherry-pick, antagonist series, cytotoxicity control, dose response (AID 743416); assay type: functional
[2] = blockers of bursicon-stimulated LGR2 cAMP reporter – cell-based, HEK293, CRE-luciferase reporter, cherry pick, set 2, dose response (AID 743343); assay type: functional;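 note: transfected cells were stimulated with diluted bursicon conditioned medium after compound addition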
[3] = blockade of melanocortin 4 receptor signaling – cell-based, plate reader, cherry pick, counter-screen for LGR2 antagonist project, dose response (AID 743444); assay type: functional;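 note: transfected HEK 293 cells stimulated with alpha-MSH peptide; potency of inhibitors of the alpha-MSH evoked signal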
[4] = Luminescence Cell-Based Dose Confirmation HTS to Identify Activators of 5'UTR Stem-Loop Driven Alpha-Synuclein mRNA Translation in H4 Neuroglioblastoma Cells. [Related pubchem assays: 1829 (Project Summary), 1814 (Primary HTS)]; assay type: functional
[5] = Luminescence Cell-Based Dose Response HTS to Identify Activators of Luciferase Translation or Activity in H4 […] Cells. [Related pubchem assays: 1829 (Project Summary), 1814 (Primary HTS)]; assay type: functional
[6] = test system: H4; experiment: Luminescence Cell-Based Dose Response HTS to Identify Activators of 5'UTR Stem-Loop Driven Prion Protein mRNA Translation in H4 Neuroglioblastoma Cells. [Related pubchem assays: 1829 (Project Summary), 1814 (Primary HTS)]; assay type: functional; details: Homo sapiens
[7] = biological target: T1, Methionyl-tRNA synthetase, putative (Trypanosoma brucei brucei, UniProt Q38C91); assay type: functional, Trypanosoma brucei brucei strain 927/4 GUTat10.1
T1 sequence (Q38C91 whole entry): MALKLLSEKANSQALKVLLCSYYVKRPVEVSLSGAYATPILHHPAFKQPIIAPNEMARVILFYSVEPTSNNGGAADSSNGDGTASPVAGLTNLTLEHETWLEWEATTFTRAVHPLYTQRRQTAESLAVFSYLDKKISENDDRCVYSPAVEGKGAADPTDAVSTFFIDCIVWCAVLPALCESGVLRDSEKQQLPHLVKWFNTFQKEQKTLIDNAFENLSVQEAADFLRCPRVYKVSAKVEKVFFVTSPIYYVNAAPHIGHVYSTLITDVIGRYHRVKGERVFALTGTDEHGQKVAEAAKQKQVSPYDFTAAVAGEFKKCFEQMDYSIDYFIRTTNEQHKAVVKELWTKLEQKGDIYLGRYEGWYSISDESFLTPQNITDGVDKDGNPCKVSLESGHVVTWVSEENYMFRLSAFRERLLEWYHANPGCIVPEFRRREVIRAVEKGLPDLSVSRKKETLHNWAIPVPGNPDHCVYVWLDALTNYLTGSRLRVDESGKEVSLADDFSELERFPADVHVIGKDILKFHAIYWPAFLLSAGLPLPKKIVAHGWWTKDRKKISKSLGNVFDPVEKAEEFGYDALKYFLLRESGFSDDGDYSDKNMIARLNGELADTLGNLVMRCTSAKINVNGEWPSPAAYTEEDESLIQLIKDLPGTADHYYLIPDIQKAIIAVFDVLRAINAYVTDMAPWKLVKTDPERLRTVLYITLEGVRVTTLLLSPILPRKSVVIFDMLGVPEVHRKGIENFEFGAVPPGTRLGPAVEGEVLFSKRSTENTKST

[8] = Counterscreen for inhibitors of Trypanosoma brucei methionyl tRNA synthetase (MetRS): Luminescence-based cell-based high throughput dose response assay to identify compounds that are cytotoxic to Jurkat human T lymphocyte cells.; assay type: functional
[9] = biological target: T1, Methionyl-tRNA synthetase, putative; assay type: functional, Trypanosoma brucei brucei strain 927/4 GUTat10.1; remark: listed apart in the source
[10] = test system: Streptococcus sp. 'group A'; experiment: Streptococcus pyogenes SK(-)GAS viability under kanamycin – luminescence, BacTiterGlo, confirmation, counter-screen for streptokinase expression inhibitor project, dose response (AID 1900); assay type: functional, organism-based
[11] = test system: Vero; experiment: mammalian cell viability reduction – secondary assay, cytotoxicity control for West Nile virus antiviral project, dose response (AID 1650); assay type: functional; details: Chlorocebus sabaeus
[12] = biological target: T2, Streptokinase A (Streptococcus pyogenes serotype M1, UniProt P10520); experiment: viability-normalized secreted streptokinase activity reduction – plasminogen activation absorbance, OD405, dose response (AID 1914); assay type: functional, Streptococcus pyogenes M1 GAS;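 note: secreted streptokinase activity via plasminogen activation per viability signal from cell pellet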
T2 sequence (P10520 whole entry): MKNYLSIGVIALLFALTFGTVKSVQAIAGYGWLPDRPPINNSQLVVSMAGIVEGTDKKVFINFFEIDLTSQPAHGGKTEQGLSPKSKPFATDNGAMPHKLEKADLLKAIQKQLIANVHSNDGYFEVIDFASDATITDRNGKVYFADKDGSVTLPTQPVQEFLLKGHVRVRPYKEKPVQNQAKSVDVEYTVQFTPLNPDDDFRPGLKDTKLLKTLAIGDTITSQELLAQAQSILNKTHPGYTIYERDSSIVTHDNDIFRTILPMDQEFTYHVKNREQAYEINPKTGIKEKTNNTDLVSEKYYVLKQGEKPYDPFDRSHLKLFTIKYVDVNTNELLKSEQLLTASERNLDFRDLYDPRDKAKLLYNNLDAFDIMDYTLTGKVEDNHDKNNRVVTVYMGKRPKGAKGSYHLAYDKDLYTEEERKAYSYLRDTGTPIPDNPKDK

[13] = Trypanosoma cruzi growth suppression in host cells – NIH3T3 host cells, beta-gal luminescence, confirmation (AID 2044); assay type: functional, cell-based;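 note: intracellular parasites grown in NIH/3T3 mouse fibroblasts as host cells; luminescent beta-galactosidase reporter signal from transgenic T. cruzi replicating inside host cells; inhibitors lower the luminescence signal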
[14] = NIH3T3 cell viability loss – ATP luminescence, mouse fibroblasts, counter-screen, dose response (AID 2010); assay type: functional, cell-based;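 note: cells exposed to compound for about 90 hours before reading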
[15] = test system: Streptococcus; experiment: GAS UMAA2166 growth inhibition – luminescence, BacTiterGlo, counter-screen for streptokinase expression inhibitor project, dose response (AID 1915); assay type: functional, organism-based;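 note: potency for reduction of bacterial viability or growth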
[16] = Luminescence Cell-Based Dose Retest to Confirm Inhibitors of Cancer Stem Cells. [Related pubchem assays (depositor defined):AID2717, AID2721]; assay type: functional; details: Homo sapiens
[17] = biological target: T3, Heat shock factor protein 1 (Mus musculus, UniProt P38532); experiment: enhancement of HSF1-driven luciferase signal – cell-based, NIH3T3, luminescence, dose retest, confirmation (AID 435004); assay type: functional;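 note: stress induced by proteasome inhibitor MG132 added 30 min after compound; luciferase reporter driven by HSF1 response element in NIH3T3 cells; actives raise luminescence as potentiators of the MG132 stress response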
T3 sequence (P38532 whole entry): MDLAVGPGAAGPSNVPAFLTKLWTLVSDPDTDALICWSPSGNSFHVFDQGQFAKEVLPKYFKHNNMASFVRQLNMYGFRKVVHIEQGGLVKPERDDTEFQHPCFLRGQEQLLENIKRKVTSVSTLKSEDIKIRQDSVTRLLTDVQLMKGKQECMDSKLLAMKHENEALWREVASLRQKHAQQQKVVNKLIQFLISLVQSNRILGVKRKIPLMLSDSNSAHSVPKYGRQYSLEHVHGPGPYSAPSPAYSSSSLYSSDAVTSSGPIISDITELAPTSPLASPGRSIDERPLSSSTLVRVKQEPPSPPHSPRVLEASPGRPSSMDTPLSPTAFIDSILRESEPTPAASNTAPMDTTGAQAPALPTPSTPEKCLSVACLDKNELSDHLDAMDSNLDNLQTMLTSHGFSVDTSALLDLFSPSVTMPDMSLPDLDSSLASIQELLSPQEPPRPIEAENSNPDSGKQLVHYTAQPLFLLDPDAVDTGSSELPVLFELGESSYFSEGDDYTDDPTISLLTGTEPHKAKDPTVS

[18] = biological target: Paired box protein Pax-8 (Homo sapiens, UniProt Q06710); experiment: PAX8 transcriptional activity inhibition in RMG-I – RMG-I cells, luciferase, cherry-pick, dose response (AID 687027); assay type: functional, cell-based;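 note: luciferase reporter driven by Pax8 target thyroperoxidase promoter measured by SteadyGlo luminescence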
[19] = biological target: T4, Calpain-2 catalytic subunit (Sus scrofa, UniProt P43367); experiment: m-calpain protease blockers, concentration series – biochemical, fluorogenic peptide substrate, dose response (AID 1420); assay type: functional
T4 sequence (P43367 whole entry): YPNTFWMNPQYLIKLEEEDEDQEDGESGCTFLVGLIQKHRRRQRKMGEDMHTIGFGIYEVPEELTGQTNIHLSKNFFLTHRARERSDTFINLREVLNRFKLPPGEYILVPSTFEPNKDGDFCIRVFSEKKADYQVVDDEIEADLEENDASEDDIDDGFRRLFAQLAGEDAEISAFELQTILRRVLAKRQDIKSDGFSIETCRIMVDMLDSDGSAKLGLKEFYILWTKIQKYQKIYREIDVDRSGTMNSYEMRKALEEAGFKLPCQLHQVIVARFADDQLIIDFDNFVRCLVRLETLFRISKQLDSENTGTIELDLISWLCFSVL

[20] = biological target: T5, Leucine aminopeptidase (Plasmodium falciparum 3D7, UniProt Q8IL11); experiment: P. falciparum M17LAP inhibitors, primary screen, biochemical, fluorogenic H-Leu-NHMec substrate, 1536-well (AID 1619); assay type: functional
T5 sequence (Q8IL11 whole entry): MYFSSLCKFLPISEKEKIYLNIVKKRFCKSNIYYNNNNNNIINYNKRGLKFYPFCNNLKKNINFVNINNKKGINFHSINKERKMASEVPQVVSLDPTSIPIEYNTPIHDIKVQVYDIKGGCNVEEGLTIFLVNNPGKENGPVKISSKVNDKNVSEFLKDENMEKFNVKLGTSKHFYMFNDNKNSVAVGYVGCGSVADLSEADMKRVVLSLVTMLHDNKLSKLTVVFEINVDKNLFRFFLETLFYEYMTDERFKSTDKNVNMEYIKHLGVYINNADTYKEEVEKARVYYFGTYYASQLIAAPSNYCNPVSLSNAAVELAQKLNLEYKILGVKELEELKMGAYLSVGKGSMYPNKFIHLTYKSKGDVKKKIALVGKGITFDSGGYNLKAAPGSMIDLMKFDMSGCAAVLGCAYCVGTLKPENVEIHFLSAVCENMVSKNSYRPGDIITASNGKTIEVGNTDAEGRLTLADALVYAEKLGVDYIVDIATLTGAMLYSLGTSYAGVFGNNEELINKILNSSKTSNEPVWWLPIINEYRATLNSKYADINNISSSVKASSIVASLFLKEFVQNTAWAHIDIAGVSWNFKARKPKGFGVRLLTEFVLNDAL

[21] = biological target: T6, Estrogen receptor (Homo sapiens, UniProt P03372);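 note: potency for inhibiting coactivator peptide recruitment to the receptor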
T6 sequence (P03372 whole entry): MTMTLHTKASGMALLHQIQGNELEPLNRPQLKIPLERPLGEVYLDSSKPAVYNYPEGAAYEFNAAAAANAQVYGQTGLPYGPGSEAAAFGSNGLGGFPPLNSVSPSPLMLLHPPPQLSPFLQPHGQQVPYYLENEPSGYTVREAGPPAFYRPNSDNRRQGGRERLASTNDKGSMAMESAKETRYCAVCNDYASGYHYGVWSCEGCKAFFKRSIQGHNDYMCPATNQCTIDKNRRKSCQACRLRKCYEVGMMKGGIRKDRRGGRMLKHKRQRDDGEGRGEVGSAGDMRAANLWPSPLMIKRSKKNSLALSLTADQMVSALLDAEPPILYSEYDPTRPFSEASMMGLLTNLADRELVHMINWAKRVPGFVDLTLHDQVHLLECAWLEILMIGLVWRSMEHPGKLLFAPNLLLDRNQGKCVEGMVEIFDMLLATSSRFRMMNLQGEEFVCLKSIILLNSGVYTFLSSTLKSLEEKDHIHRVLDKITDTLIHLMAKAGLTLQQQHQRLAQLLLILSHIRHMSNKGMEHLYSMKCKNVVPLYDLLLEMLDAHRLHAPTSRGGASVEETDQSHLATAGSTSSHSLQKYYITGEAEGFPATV

[22] = growth inhibition of yeast DHODH-expressing 3D7 parasites – SYBR Green, dry powder samples, dose response (AID 1159570); assay type: functional, cell-based;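 note: parasite growth measured after 72 hours of compound exposure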
[23] = P. falciparum Dd2 growth inhibitors, dose response, SYBR Green, cherry-picked samples (AID 1159567); assay type: functional, cell-based
[24] = Dd2 malaria parasite growth inhibition potency – SYBR Green, dry powder samples, dose response (AID 1159566); assay type: functional, cell-based;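 note: potency for growth inhibition with lower SYBR green DNA signal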
[25] = growth inhibition of PfATP4-mutant resistant parasites – NITD609-resistant line, SYBR Green, dry powder, dose response (AID 1159571); assay type: functional, cell-based;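 note: parasites synchronized at ring stage by sorbitol before testing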

Sequence of Paired box protein Pax-8 (Q06710 whole entry): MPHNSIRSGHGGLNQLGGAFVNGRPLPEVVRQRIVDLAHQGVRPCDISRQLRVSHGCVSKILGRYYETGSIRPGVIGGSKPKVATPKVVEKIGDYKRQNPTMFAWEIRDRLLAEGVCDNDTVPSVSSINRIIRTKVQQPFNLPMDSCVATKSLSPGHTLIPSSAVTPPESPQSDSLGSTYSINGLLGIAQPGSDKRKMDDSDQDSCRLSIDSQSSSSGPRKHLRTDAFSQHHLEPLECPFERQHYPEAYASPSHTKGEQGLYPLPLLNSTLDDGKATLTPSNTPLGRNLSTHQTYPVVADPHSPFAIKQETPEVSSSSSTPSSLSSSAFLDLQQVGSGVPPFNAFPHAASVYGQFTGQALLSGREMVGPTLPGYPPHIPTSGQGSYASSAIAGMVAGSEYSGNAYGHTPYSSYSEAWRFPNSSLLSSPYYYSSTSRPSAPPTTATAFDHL

COc1ccc(-n2nnnc2-c2nc3ccccc3s2)cc1
AC50 [1]: > 52 µM (inactive)
AC50 [2]: 6.52 µM (active)
AC50 [3]: 7.96 µM (active)

Cc1ccccc1Oc1cc(NC(=O)Cn2cnc([N+](=O)[O-])c2)cc([N+](=O)[O-])c1
EC50 [4]: > 120 µM (not active)
EC50 [5]: > 120 µM (not active)
EC50 [6]: > 120 µM (not active)
IC50 [7]: 52.5 µM (inactive)
IC50 [8]: 37.3 µM (inactive)
IC50 [9]: 51.3 µM (inactive)

O=C(Nc1cccc(Cl)c1)Nc1csc([N+](=O)[O-])c1
EC50 [10]: 9.68 µM (active)
CC50 [11]: > 100 µM (active)
EC50 [12]: > 150 µM (not active)
EC50 [13]: 3.47 µM (active)
EC50 [14]: > 60 µM (not active)
EC50 [15]: 15.3 µM (active)
AC50 [16]: 4.34 µM (active)
EC50 [17]: 31.6 µM (active)
AC50 [18]: 11.6 µM (active)

O=C(NCc1cccs1)c1cccc(Nc2nc3cc(Br)ccc3[nH]2)c1
IC50 [19]: 11.1 µM (not active)
IC50 [7]: 31.3 µM (inactive)
IC50 [8]: 83.1 µM (inactive)
IC50 [9]: 38.7 µM (inactive)

CC(=O)NS(=O)(=O)c1ccc(NC(=O)c2cc(-c3ccc(C)cc3)nc3ccccc23)cc1
IC50 [20]: 13.7 µM (active)

CCOC(=O)c1c(NC(=O)CSc2nnc(C)c(=O)[nH]2)sc2c1CCC2
IC50 [20]: 7.77 µM (active)

O=C(NCC1CCCO1)C(=Cc1cccc([N+](=O)[O-])c1)C(=O)NCC1CCCO1 (stereo not drawn)
CC50 [11]: 23.6 µM (active)
AC50 [18]: 3.43 µM (active)

O=C(Nc1cccc(-c2cnc3ccccc3n2)c1)c1cccc(NC(=O)c2ccco2)c1
IC50 [21]: 13.1 µM (active)

CCOC(=O)c1c(NC(=O)CCS(=O)(=O)c2ccccc2)sc2c1CCN(C(C)C)C2
CC50 [11]: 69.1 µM (active)

CC1(C)CC(=O)c2cnc(NCC3CCCO3)nc2C1 (stereo not drawn)
IC50 [21]: > 50 µM (not active)

COc1ccc(-c2ccccc2[C@H]2[C@@H](C#N)N(C(=O)C3CCCCC3)[C@H]2CO)cc1
AC50 [22]: 1.38 µM (active)
AC50 [23]: 1.03 µM (active)
AC50 [24]: 1.52 µM (active)
AC50 [25]: 5.94 µM (active)
